This note sets out measurements from PubChem BioAssay AID1671438.

Each structure is given as a SMILES string. pIC50: −log10 of the molar value.

The experiment deals with Tyrosine-protein kinase Yes (Homo sapiens) (UniProt P07947). The experiment can be described thus: YES1 kinase inhibition, dose response, biochemical, Z'-LYTE, FRET readout, direct format (AID 1671438). The settings on record: Z'-LYTE FRET kinase activity, recombinant YES1.
Sequence of Tyrosine-protein kinase Yes (Homo sapiens) (P07947 whole entry, looked up): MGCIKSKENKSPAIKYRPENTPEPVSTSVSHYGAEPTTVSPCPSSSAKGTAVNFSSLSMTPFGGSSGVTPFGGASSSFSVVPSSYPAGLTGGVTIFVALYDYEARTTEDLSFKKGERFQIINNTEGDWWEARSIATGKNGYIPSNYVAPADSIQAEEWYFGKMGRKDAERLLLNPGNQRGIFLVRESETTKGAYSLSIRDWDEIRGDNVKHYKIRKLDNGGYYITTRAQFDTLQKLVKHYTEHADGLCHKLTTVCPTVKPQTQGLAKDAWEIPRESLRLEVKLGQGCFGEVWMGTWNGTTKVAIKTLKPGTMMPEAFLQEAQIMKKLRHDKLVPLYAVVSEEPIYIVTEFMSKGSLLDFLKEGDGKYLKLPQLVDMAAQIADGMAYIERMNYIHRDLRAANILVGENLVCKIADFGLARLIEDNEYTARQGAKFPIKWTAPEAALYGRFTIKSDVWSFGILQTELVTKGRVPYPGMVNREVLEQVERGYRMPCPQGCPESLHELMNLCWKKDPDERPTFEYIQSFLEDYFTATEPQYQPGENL

As to `COc1cc2ncnc(Nc3cccc(Cl)c3)c2cc1OC`, the pIC50 is 6.03.
